Key:
Type in all cases: cell-based
[1] = molecular target: T1, human EDG8 (S1PR5) receptor (Homo sapiens, UniProt Q9H228); test: Aequorin assay, agonist potency, CHO-A21-EDG8#12 cells; details: agonist mode, aequorin luminescence; read-out: S1P5 EC50 range #
T1 construct: carries the transgenes human EDG8 (S1PR5) receptor (Acession number NP_110387.1); expressed in transfected cells; host or cells: CHO-A21-EDG8#12 (CHO clone co-expressing mitochondrial aequorin and chimaeric Gaqi5)
Outline: (§1)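 CHO cells coexpressing receptor, mitochondrial aequorin and Gαqi5 (S1P3 pool: GNA16) were loaded overnight at RT with 5 μM coelenterazine h in 0.1% fatty-acid-free BSA buffer. Cells were injected onto compound, luminescence recorded 90 s and integrated, normalised to digitonin or 20 μM ATP; sigmoidal fit.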

[2] = molecular target: T2, human EDG1 (S1PR1) receptor (Homo sapiens, UniProt P21453); test: Aequorin assay, agonist potency, CHO-A21-Edg1#17 cells; details: agonist mode, aequorin luminescence; read-out: S1P1 EC50
T2 construct: expressed in transfected cells; host or cells: CHO-A21-Edg1#17 (CHO clone co-expressing mitochondrial aequorin and chimaeric Gaqi5)
Outline: as §1

S1P4 = molecular target: T3, S1P4 (Homo sapiens, UniProt O95977); test: Aequorin assay, agonist potency, S1P4; details: agonist mode, aequorin luminescence
T3 sequence (O95977 1-384): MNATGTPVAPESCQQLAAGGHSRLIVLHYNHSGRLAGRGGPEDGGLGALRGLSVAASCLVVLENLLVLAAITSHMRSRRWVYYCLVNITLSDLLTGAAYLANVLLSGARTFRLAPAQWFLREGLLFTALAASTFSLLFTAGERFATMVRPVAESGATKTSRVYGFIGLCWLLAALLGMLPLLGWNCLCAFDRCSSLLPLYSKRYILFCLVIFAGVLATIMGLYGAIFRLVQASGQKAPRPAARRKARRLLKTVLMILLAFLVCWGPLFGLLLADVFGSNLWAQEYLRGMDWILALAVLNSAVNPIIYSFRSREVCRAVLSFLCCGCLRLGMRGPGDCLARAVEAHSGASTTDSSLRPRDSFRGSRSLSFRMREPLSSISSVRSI
Outline: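 Cells loaded overnight at RT with 5 μM coelenterazine h in DMEM/HAM's F12 with HEPES plus 0.1% fatty acid-free BSA, then injected onto compounds; agonist-induced calcium luminescence recorded for 90 s and integrated. Signal normalised to digitonin (100 μM) or ATP (20 μM) wells, S1P as reference agonist; sigmoidal nonlinear regression.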

T2 sequence (P21453 whole entry): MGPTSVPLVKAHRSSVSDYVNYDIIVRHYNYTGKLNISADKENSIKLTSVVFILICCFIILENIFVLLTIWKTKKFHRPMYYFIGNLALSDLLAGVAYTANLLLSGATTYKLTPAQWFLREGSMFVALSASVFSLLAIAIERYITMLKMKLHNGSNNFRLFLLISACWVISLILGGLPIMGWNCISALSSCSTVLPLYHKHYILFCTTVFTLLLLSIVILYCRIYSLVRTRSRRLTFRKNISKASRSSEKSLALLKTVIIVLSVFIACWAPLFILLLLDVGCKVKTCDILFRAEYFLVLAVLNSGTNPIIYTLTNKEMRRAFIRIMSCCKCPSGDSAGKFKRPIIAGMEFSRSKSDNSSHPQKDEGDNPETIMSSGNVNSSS
T1 sequence (Q9H228 whole entry): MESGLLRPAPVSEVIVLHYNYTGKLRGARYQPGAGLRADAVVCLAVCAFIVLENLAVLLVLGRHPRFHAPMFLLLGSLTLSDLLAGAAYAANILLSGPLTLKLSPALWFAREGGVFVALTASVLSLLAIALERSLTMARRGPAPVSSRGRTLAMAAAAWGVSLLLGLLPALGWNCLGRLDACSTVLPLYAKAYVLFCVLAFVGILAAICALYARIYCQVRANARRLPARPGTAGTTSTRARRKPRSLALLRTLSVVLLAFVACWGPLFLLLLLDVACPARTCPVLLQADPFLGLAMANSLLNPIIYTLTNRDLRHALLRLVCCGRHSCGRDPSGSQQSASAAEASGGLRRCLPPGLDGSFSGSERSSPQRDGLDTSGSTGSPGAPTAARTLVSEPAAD

Row | SMILES | EC50 [1] [nM] | EC50 [2] [nM] | EC50 (S1P4) [nM]
1 | CC(C)Oc1ccc(C#Cc2ccc3c(c2)CC2(C3)CN(CC3(C(=O)O)CC3)C2)cn1 [Example 114, 1-((5′-((6-isopropoxypyridin-3-yl)ethynyl)-1′,3′-dihydrospiro[azetidine-3,2′-inden]-1-yl)methyl)cyclopropanecarboxylic acid] | 100 to 1000 | > 1000 | > 1000
2 | CCOc1c(F)cc(COc2ccc3c(c2)CC2(C3)CN(CC3(C(=O)O)CC3)C2)cc1F [Example 120, 1-((5′-((4-ethoxy-3,5-difluorobenzyl)oxy)-1′,3′-dihydrospiro[azetidine-3,2′-inden]-1-yl)methyl)cyclopropanecarboxylic acid] | 1000 to 10000 | > 1000 | < 1000
3 | O=C(O)C1CC(N2CC3(Cc4ccc(C#Cc5ccc(OCC6CC6)nc5)cc4C3)C2)C1 (stereo not drawn) [Example 99, 3-(5′-((6-(cyclopropylmethoxy)pyridin-3-yl)ethynyl)-1′,3′-dihydrospiro[azetidine-3,2′-inden]-1-yl)cyclobutanecarboxylic acid] | 100 to 1000 | < 1000 | > 1000
4 | O=C(O)C1(CN2CC3(Cc4ccc(OCc5c(F)cccc5C5CC5)cc4C3)C2)CC1 [Example 131, 1-((5′-((2-cyclopropyl-6-fluorobenzyl)oxy)-1′,3′-dihydrospiro[azetidine-3,2′-inden]-1-yl)methyl)cyclopropanecarboxylic acid] | ≤ 10 | > 1000 | < 1000
5 | CCOc1ccc(C#Cc2ccc3c(c2)CC2(C3)CN(C3CC(C(=O)O)C3)C2)cc1F (stereo not drawn) [Example 100, 3-(5′-((4-ethoxy-3-fluorophenyl)ethynyl)-1′,3′-dihydrospiro[azetidine-3,2′-inden]-1-yl)cyclobutanecarboxylic acid] | ≤ 10 | < 1000 | > 1000
6 | COc1cccc(Cl)c1COc1ccc2c(c1)CC1(C2)CN(CC2(C(=O)O)CC2)C1 [Example 31, 1-((5′-((2-chloro-6-methoxybenzyl)oxy)-1′,3′-dihydrospiro[azetidine-3,2′-inden]-1-yl)methyl)cyclopropanecarboxylic acid compound with 2,2,2-trifluoroacetic acid (1:1)] | 100 to 1000 | > 1000 | < 1000
7 | CCCCc1ccc(COc2ccc3c(c2)CC2(C3)CN(CC(=O)O)C2)c(Cl)c1 [Example 3, 2-(5′-((4-butyl-2-chlorobenzyl)oxy)-1′,3′-dihydrospiro[azetidine-3,2′-inden]-1-yl)acetic acid] | 1000 to 10000 | > 1000 | < 1000
8 | O=C(O)CN1CC2(Cc3ccc(OCc4c(Cl)cccc4C(F)(F)F)cc3C2)C1 [Example 20, 2,2,2-trifluoroacetic acid compound with 2-(5′-((2-chloro-6-(trifluoromethyl)benzyl)oxy)-1′,3′-dihydrospiro[azetidine-3,2′-inden]-1-yl)acetic acid (1:1)] | ≤ 10 | > 1000 | < 1000
9 | O=C(O)C1(CN2CC3(Cc4ccc(OCc5cc(Cl)cnc5Cl)cc4C3)C2)CC1 [Example 124, 1-((5′-((2,5-dichloropyridin-3-yl)methoxy)-1′,3′-dihydrospiro[azetidine-3,2′-inden]-1-yl)methyl)cyclopropanecarboxylic acid] | 1000 to 10000 | > 1000 | < 1000
10 | O=C(O)CN1CC2(Cc3ccc(OCc4cccc5c4CCC5)cc3C2)C1 [Example 74, 2-(5′-((2,3-dihydro-1H-inden-4-yl)methoxy)-1′,3′-dihydrospiro[azetidine-3,2′-inden]-1-yl)acetic acid] | ≤ 10 | > 1000 | < 1000
11 | COc1cccc(F)c1COc1ccc2c(c1)CC1(C2)CN(CC2(C(=O)O)CC2)C1 [Example 30, 1-((5′-((2-fluoro-6-methoxybenzyl)oxy)-1′,3′-dihydrospiro[azetidine-3,2′-inden]-1-yl)methyl)cyclopropanecarboxylic acid compound with 2,2,2-trifluoroacetic acid (1:1)] | 1000 to 10000 | > 1000 | > 1000
12 | O=C(O)[C@H]1C[C@H](N2CC3(Cc4ccc(OCc5cc(Cl)ccc5Cl)cc4C3)C2)C1 [Example 89, (1r,3r)-3-(5′-((2,5-dichlorobenzyl)oxy)-1′,3′-dihydrospiro[azetidine-3,2′-inden]-1-yl)cyclobutanecarboxylic acid] | 10 to 100 | > 1000 | < 1000
13 | O=C(O)CN1CC2(Cc3ccc(OCc4cccc5c4OCC5)cc3C2)C1 [Example 72, 2-(5′-((2,3-dihydrobenzofuran-7-yl)methoxy)-1′,3′-dihydrospiro[azetidine-3,2′-inden]-1-yl)acetic acid] | 100 to 1000 | > 1000 | < 1000
14 | O=C(O)C1CC(N2CC3(Cc4ccc(OCc5c(F)cccc5C5CC5)cc4C3)C2)C1 (stereo not drawn) [Example 87, 3-(5′-((2-cyclopropyl-6-fluorobenzyl)oxy)-1′,3′-dihydrospiro[azetidine-3,2′-inden]-1-yl)cyclobutanecarboxylic acid] | ≤ 10 | > 1000 | < 1000
15 | O=C(O)C1(CN2CC3(Cc4ccc(OC5CCc6ccccc65)cc4C3)C2)CC1 (stereo not drawn) [Example 130, 1-((5′-((2,3-dihydro-1H-inden-1-yl)oxy)-1′,3′-dihydrospiro[azetidine-3,2′-inden]-1-yl)methyl)cyclopropanecarboxylic acid] | 1000 to 10000 | > 1000 | < 1000
16 | CCc1cccc(Cl)c1COc1ccc2c(c1)OC1(C2)CN(CC(=O)O)C1 [Example 158, 2-(6′-((2-chloro-6-ethylbenzyl)oxy)-3′H-spiro[azetidine-3,2′-benzofuran]-1-yl)acetic acid] | ≤ 10 | < 1000 | < 1000
17 | CCOc1cc(F)c(COc2ccc3c(c2)CC2(C3)CN(CC3(C(=O)O)CC3)C2)c(F)c1 [Example 122, 1-((5′-((4-ethoxy-2,6-difluorobenzyl)oxy)-1′,3′-dihydrospiro[azetidine-3,2′-inden]-1-yl)methyl)cyclopropanecarboxylic acid] | 1000 to 10000 | > 1000 | < 1000
18 | CCc1cccc(Cl)c1COc1ccc2c(c1)OC1(C2)CN(CC(C)CC(=O)O)C1 (stereo not drawn) [Example 157, 4-(6′-((2-chloro-6-ethylbenzyl)oxy)-3′H-spiro[azetidine-3,2′-benzofuran]-1-yl)-3-methylbutanoic acid] | ≤ 10 | > 1000 | < 1000
19 | O=C(O)CN1CC2(Cc3ccc(OCc4c(F)cccc4C(F)(F)F)cc3C2)C1 [Example 19, 2-(5′-((2-fluoro-6-(trifluoromethyl)benzyl)oxy)-1′,3′-dihydrospiro[azetidine-3,2′-inden]-1-yl)acetic acid] | ≤ 10 | > 1000 | < 1000
20 | O=C(O)C1(CN2CC3(Cc4ccc(OCc5ccc(Cl)cc5)cc4C3)C2)CC1 [Example 33, 1-((5′-((4-chlorobenzyl)oxy)-1′,3′-dihydrospiro[azetidine-3,2′-inden]-1-yl)methyl)cyclopropanecarboxylic acid] | 1000 to 10000 | > 1000 | < 1000
21 | CCc1ccc(COc2ccc3c(c2)CC2(C3)CN(CC(=O)O)C2)c(Cl)c1 [Example 4, 2-(5′-((2-chloro-4-ethylbenzyl)oxy)-1′,3′-dihydrospiro[azetidine-3,2′-inden]-1-yl)acetic acid] | 100 to 1000 | > 1000 | < 1000
22 | O=C(O)C1(CN2CC3(Cc4ccc(OCc5ccc(Cl)cc5Cl)cc4C3)C2)CC1 [Example 38, 1-((5′-((2,4-dichlorobenzyl)oxy)-1′,3′-dihydrospiro[azetidine-3,2′-inden]-1-yl)methyl)cyclopropanecarboxylic acid] | 1000 to 10000 | > 1000 | < 1000
23 | O=C(O)C1(CN2CC3(Cc4ccc(OCCc5ccc(Cl)cc5)cc4C3)C2)CC1 [Example 55, 1-((5′-(4-chlorophenethoxy)-1′,3′-dihydrospiro[azetidine-3,2′-inden]-1-yl)methyl)cyclopropanecarboxylic acid] | 1000 to 10000 | > 1000 | < 1000
24 | O=C(O)C1(CN2CC3(Cc4ccc(OCc5ccccc5Cl)cc4C3)C2)CC1 [Example 141, 1-((5′-((2-chlorobenzyl)oxy)-1′,3′-dihydrospiro[azetidine-3,2′-inden]-1-yl)methyl)cyclopropanecarboxylic acid] | 1000 to 10000 | > 1000 | < 1000
25 | CC1CCC(C#Cc2ccc3c(c2)CC2(C3)CN(CC(=O)O)C2)CC1 (stereo not drawn) [Example 76, 2-(5′-((4-methylcyclohexyl)ethynyl)-1′,3′-dihydrospiro[azetidine-3,2′-inden]-1-yl)acetic acid] | ≤ 10 | > 1000 | < 1000

From patent US20200055817A1 (AbbVie Deutschland GmbH & Co. KG, priority 2016, published 2020)
